Assay results taken from EP0580409A2, “Cosmetic composition containing DOPA derivatives” (UNILEVER PLC, priority 1992, dated 1994).
Structures can show the parent of a compound that is named as a salt.

Assays:
[1] = system: isolated living human hair follicles; test: in vitro test of darkening of hair on regrowth with isolated hair follicles in culture; assay type: cell-based
Description: The isolation of individual hair follicles and their culture will now be described.
The method of testing includes the important step of isolating hair follicles having an undamaged hair bulb from skin, preferably from human skin, by microdissection, but preferably without the enzymic pretreatment advocated by other workers in this field.
The critical step of separating the hair follicle with intact undamaged hair bulb from the subcutaneous fatty tissue in which it is situated accordingly involves severing the hair shaft of the follicle at a point below the epidermis or skin surface, so as to leave the hair bulb intact and undamaged while still bearing a portion of the hair shaft.
(§1) In accordance with the preferred method of culture, isolated hair follicles were maintained in 500µl of Williams E medium, containing the test substance (substituted DOPA) at a concentration of 1mM, at 37°C in an atmosphere of 5% CO₂ + 95% air in individual wells of a 24 multiwell dish (Corning), which permitted detailed observations of the colour and measurements to be made of individual hair follicles.
Hair shaft length measurements and colour changes, i.e. darkening, were made on these follicles, using a Nikon Diaphot inverted binocular photo microscope with eye piece measuring graticules, over seven days in culture.
Groups of eight freshly isolated hair follicles were maintained in a Williams E medium under the conditions stated above. For a control group of follicles the medium contained no test substance. For other groups of follicles the medium contained the test substance at 0.1mM concentration of 1mM concentration, In all cases the growth medium additionally contained L-glutamine (2mM), Penicillin (50 IU/ml), streptomycin (50 ug/ml), insulin (10 ug/ml) and hydrocortisone (10 ng/ml).
(§2) The follicles were photographed at the start of the incubation period and again after incubation for two or four days. The growth and morphology of the follicles was monitored during the culture period.

[2] = system: isolated living human hair follicles; test: observation of inhibition or damage of cultured hair follicles; assay type: cell-based; conditions: follicles cultured with test substance at 0.1mM or 1mM
Method: as §1
Groups of eight freshly isolated hair follicles were maintained in a Williams E medium under the conditions stated above. For a control group of follicles the medium contained no test substance. […]
as §2
Melanin formation by these follicles was assessed. […] The supernatant was removed, 200ul samples added to a 96 well plate and the melanin content then determined spectrophotometrically at 540nm. […] The protein content of each sample was also determined by the Folin & Lowry method, with the absorbance being read at 540nm. […] Results were expressed as ug melanin/mg soluble protein.

cultured follicles = test: melanin formation by cultured hair follicles, spectrophotometric at 540nm; assay type: cell-based, human; conditions: 12 cultured follicles per assay; control 1.11
Method: Melanin formation by these follicles was assessed. The procedure was based on that of Gardon and Gilchrest, 1989. For each assay 12 cultured follicles were placed in 500ul of 1M NaOH and incubated overnight at 4°C. The follicles were then homogenised and centrifuged at 14,000 rpm for 2 min. The supernatant was removed, 200ul samples added to a 96 well plate and the melanin content then determined spectrophotometrically at 540nm. A standard curve was also prepared from synthetic melanin dissolved in 1M NaOH. The protein content of each sample was also determined by the Folin & Lowry method, with the absorbance being read at 540nm. […] Results were expressed as ug melanin/mg soluble protein.

[3] = 1mM test substance in Williams E medium, 96 hrs
[4] = 0.1mM test substance in Williams E medium, after 48 hrs

| SMILES | DARKENING OBSERVED [1, 3] | DARKENING OBSERVED [1, 4] | inhibit or damage the follicles [2] | µg Melanin/mg soluble protein (cultured follicles) |
| --- | --- | --- | --- | --- |
| CC(=O)Oc1ccc(C[C@H](N)C(=O)O)cc1OC(C)=O [3,4-diacetyl-L-DOPA hydrochloride] | YES (96 hrs) | – | – | – |
| CC(N)(Cc1ccc(O)c(O)c1)C(=O)O (centres unmarked) [2-methyl-3-(3,4-dihydroxyphenyl)alanine, 2-methyl-3-(3,4-dihydroxyphenylalanine)] | – | YES (after 48 hrs) | did not appear to inhibit or damage the follicles | 8.36 µg Melanin/mg soluble protein |
| COC(=O)[C@@H](N)Cc1ccc(OC(C)=O)c(OC(C)=O)c1 [methyl-3,4-diacetyl-L-DOPA hydrochloride] | YES (96 hrs) | – | – | – |
| NC(C(=O)O)C(O)c1ccc(O)c(O)c1 (centres unmarked) [Dihydroxyphenylserine, 3,4-dihydroxyphenylserine] | – | YES (after 48 hrs) | did not appear to inhibit or damage the follicles | 6.31 µg Melanin/mg soluble protein |
